# Test results: patent US20080293820A1, “METHODS FOR IMPROVING PHYSICAL FUNCTION IN FIBROMYALGIA” (Cypress Bioscience, Inc., priority 2007, published 2008)
# Counter-ions that a name gives are not always drawn.
# Test system: patients who meet the 1990 ACR criteria for fibromyalgia syndrome
# Assay: Example 2: multicenter, double-blind, randomized, placebo-controlled monotherapy study of milnacipran for treatment of fibromyalgia (1196 patients)
# Format: in vivo, human
# Set-up: Mean Change from Baseline in PFI SF-36 domain score / Mean Change from Baseline in ROLP SF-36 domain score / Mean Change from Baseline in PAIN SF-36 domain score / Mean Change from Baseline in GHP SF-36 domain score: scale not given here
# Details: for Composite Pain: number of responders / Composite Syndrome: number of responders / PGIC Component: number of responders / Pain Component: number of responders / SF36 PCS Component: number of responders: 100 mg (399); for time-weighted average (AUC) of SF-36 PCS Scores, Difference from Placebo / time-weighted average (AUC) of SF-36 PCS Scores, LS Mean: Tx3-Tx15, ANCOVA model
# Method: The primary outcome was a composite responder analysis assessing response rates of two doses (100 mg/day and 200 mg/day) of milnacipran as compared with placebo at Visit Tx15 (week 15).
# This was a multicenter, randomized, double-blind, placebo-controlled three-arm study designed which enrolled 1196 patients who meet the 1990 ACR criteria for fibromyalgia syndrome (history of widespread pain and pain in 11 of 18 tender point sites on digital palpation), as well as the more detailed admission criteria outlined in the protocol.
# Patients were randomized to receive placebo, 100 mg/day milnacipran or 200 mg/day milnacipran in a ratio of 1:1:1 (placebo=401 patients, 100 mg/day=399 patients, 200 mg/day=396 patients). The patients assigned to the two active treatment arms received a total of 12 weeks of stable-dose milnacipran exposure after the 3 weeks of dosage escalation steps, for a total of 15 weeks of drug exposure. All randomized medications (placebo and milnacipran) were administered twice a day (BID).
# The primary efficacy assessment of this study was a composite responder status defined by three domains of interest evaluated at visit Tx15. The domains measured were
# 1) pain (measured by an electronic diary in the morning as a daily recall pain score); 2) patient global (measured by the PGIC, 1-7 scale); 3) physical function (measured by the SF-36 PCS).
# The secondary efficacy parameters were time-weighted average (AUC) of the weekly average PED morning recall pain scores for Weeks 4 through 15, PGIC, and SF-36 PCS for Visit Tx3 to Visit Tx15.
# The physical function domain for response analysis was measured by the Physical Component Summary of SF-36 (SF-36 PCS). The SF-36 is a brief, well-established, self-administered patient questionnaire for the assessment of health status, functional status, and quality of life. The SF-36 measures eight domains of health status: physical functioning, role limitations due to physical problems, bodily pain, general health perceptions, energy/vitality, social functioning, role limitations due to emotional problems, and mental health. An SF-36 PCS score and a mental component summary (MCS) score can be calculated by combining and weighting the various individual scales. The PCS and MCS scores have been standardized to have a mean=50, SD=10 in the general healthy US population (see, e.g., Ware, J., M. Kosinski, and J. Dewey, How to Score Version 2 of the SF-36 Health Survey (Standard & Acute Forms). 3rd ed. 2000, Lincoln, R.I.: QualityMetric).
# A patient was classified as a responder for the treatment of pain of fibromyalgia if he or she reached Visit Tx15 and satisfied the following criteria: • Greater than or equal to 30% in pain reduction from baseline; • PGIC rated as “much or very much improved,” (i.e., a score of 1 or 2 on the 1-7 scale at endpoint.)
# A patient was classified as a responder for the treatment of FMS if he or she satisfied the responder criteria for the treatment of pain of fibromyalgia and the following additional criterion (at visit Tx15): • Improvement on the SF-36 PCS score from baseline by an amount at least equivalent to the minimal clinically important difference, as defined in the Statistical Analysis Plan.
# Table 6 summarizes 3-month results for the Baseline Observation Carried Forward (BOCF), Last Observation Carried Forward (LOCF) and study completer (OC) populations. LOCF is an analysis in which observations are carried forward to the last time point for patients who dropped out. The LOCF analysis treats the carried-forward data as observed data at the last time point. BOCF is an analysis that requires that the patient remain active in the trial to be evaluated for response. If a patient withdrew from the trial for any reason, they were classified as a non-responder irregardless of their pain and global scores at the time of withdrawal. […]
# [1] = 100 mg, Visits Tx3-Tx15, LOCF, intent to treat
compound,measurement,setting,value
"CCN(CC)C(=O)C1(c2ccccc2)CC1CN (racemic) [milnacipran, Z-2-aminomethyl-1-phenyl-N,N-diethylcyclopropanecarboxamide hydrochloride]",Composite Pain: number of responders,"3-months, BOCF",91
same,Composite Syndrome: number of responders,"3-months, BOCF",58
same,PGIC Component: number of responders,"3-months, BOCF",125
same,Pain Component: number of responders,"3-months, BOCF",124
same,SF36 PCS Component: number of responders,"3-months, BOCF",108
same,Composite Pain: number of responders,"3-months, LOCF",103
same,Composite Syndrome: number of responders,"3-months, LOCF",65
same,PGIC Component: number of responders,"3-months, LOCF",138
same,Pain Component: number of responders,"3-months, LOCF",149
same,SF36 PCS Component: number of responders,"3-months, LOCF",129
same,physical function in patients with fibromyalgia compared to placebo (in words),100 mg or 200 mg,surprisingly and effectively improves physical function
same,Composite Pain: responder rate,"100 mg, 3-months, BOCF",(22.81%)
same,Composite Pain: responder rate difference from placebo (unlabelled line),"100 mg, 3-months, BOCF",6.35%
same,Composite Syndrome: responder rate,"100 mg, 3-months, BOCF",(14.54%)
same,Composite Syndrome: responder rate difference from placebo (unlabelled line),"100 mg, 3-months, BOCF",5.81%
same,PGIC Component: responder rate,"100 mg, 3-months, BOCF",(31.33%)
same,PGIC Component: responder rate difference from placebo (unlabelled line),"100 mg, 3-months, BOCF",8.39%
same,Pain Component: responder rate,"100 mg, 3-months, BOCF",(31.08%)
same,Pain Component: responder rate difference from placebo (unlabelled line),"100 mg, 3-months, BOCF",5.89%
same,SF36 PCS Component: responder rate,"100 mg, 3-months, BOCF",(27.07%)
same,SF36 PCS Component: responder rate difference from placebo (unlabelled line),"100 mg, 3-months, BOCF",5.62%
same,Composite Pain: responder rate,"100 mg, 3-months, LOCF",(25.81%)
same,Composite Pain: responder rate difference from placebo (unlabelled line),"100 mg, 3-months, LOCF",7.61%
same,Composite Syndrome: responder rate,"100 mg, 3-months, LOCF",(16.29%)
same,Composite Syndrome: responder rate difference from placebo (unlabelled line),"100 mg, 3-months, LOCF",6.56%
same,PGIC Component: responder rate,"100 mg, 3-months, LOCF",(34.59%)
same,PGIC Component: responder rate difference from placebo (unlabelled line),"100 mg, 3-months, LOCF",9.65%
same,Pain Component: responder rate,"100 mg, 3-months, LOCF",(37.34%)
same,Pain Component: responder rate difference from placebo (unlabelled line),"100 mg, 3-months, LOCF",8.66%
same,SF36 PCS Component: responder rate,"100 mg, 3-months, LOCF",(32.33%)
same,SF36 PCS Component: responder rate difference from placebo (unlabelled line),"100 mg, 3-months, LOCF",6.89%
same,Composite Pain: m/n = # of responders/# of patients included,"100 mg, 3-months, OC",91/236
same,Composite Pain: responder rate,"100 mg, 3-months, OC",(38.56%)
same,Composite Pain: responder rate difference from placebo (unlabelled line),"100 mg, 3-months, OC",13.37%
same,Composite Syndrome: m/n = # of responders/# of patients included,"100 mg, 3-months, OC",58/236
same,Composite Syndrome: responder rate,"100 mg, 3-months, OC",(24.58%)
same,Composite Syndrome: responder rate difference from placebo (unlabelled line),"100 mg, 3-months, OC",11.22%
same,PGIC Component: m/n = # of responders/# of patients included,"100 mg, 3-months, OC",125/263
same,PGIC Component: responder rate,"100 mg, 3-months, OC",(47.53%)
same,PGIC Component: responder rate difference from placebo (unlabelled line),"100 mg, 3-months, OC",15.70%
same,Pain Component: m/n = # of responders/# of patients included,"100 mg, 3-months, OC",124/237
same,Pain Component: responder rate,"100 mg, 3-months, OC",(52.32%)
same,Pain Component: responder rate difference from placebo (unlabelled line),"100 mg, 3-months, OC",13.92%
same,SF36 PCS Component: m/n = # of responders/# of patients included,"100 mg, 3-months, OC",108/263
same,SF36 PCS Component: responder rate,"100 mg, 3-months, OC",(41.06%)
same,SF36 PCS Component: responder rate difference from placebo (unlabelled line),"100 mg, 3-months, OC",11.40%
same,"time-weighted average (AUC) of SF-36 PCS Scores, Difference from Placebo","100 mg, LOCF",16.78
same,"time-weighted average (AUC) of SF-36 PCS Scores, LS Mean","100 mg, LOCF",425.22
same,"time-weighted average (AUC) of SF-36 PCS Scores, Difference from Placebo","100 mg, OC",20.22
same,"time-weighted average (AUC) of SF-36 PCS Scores, LS Mean","100 mg, OC",437.91
same,Mean Change from Baseline in GHP SF-36 domain score,"100 mg, Tx 15, Observed Cohort",6.0
same,Mean Change from Baseline in PAIN SF-36 domain score,"100 mg, Tx 15, Observed Cohort",15.9
same,Mean Change from Baseline in PCS Score at Tx 15,"100 mg, Tx 15, Observed Cohort",5.0
same,Mean Change from Baseline in PFI SF-36 domain score,"100 mg, Tx 15, Observed Cohort",6.8
same,Mean Change from Baseline in ROLP SF-36 domain score,"100 mg, Tx 15, Observed Cohort",13.7
same,"time-weighted average (AUC) of SF-36 PCS Scores, Mean",[1],423.86
same,"time-weighted average (AUC) of SF-36 PCS Scores, Median",[1],418.2
same,"time-weighted average (AUC) of SF-36 PCS Scores, Mean","100 mg, Visits Tx3-Tx15, OC, intent to treat",435.76
